Results taken from patent publication US20150359771A1, “TREATING PULMONARY CONDITIONS” (priority 2013, published 2015).

How the values were obtained:
NFκB = NFκB protein expression in mouse primary lung endothelial cells (MLEC), direct treatment, Western blot; type: cell-based; conditions: theophylline 1 μM, leucine 0.5 mM, resveratrol 200 nM, FIG. 1
phospho-NFκB = phospho-NFκB protein expression in MLEC, direct treatment, Western blot; type: cell-based, mouse; conditions: theophylline 1 μM, leucine 0.5 mM, resveratrol 200 nM
Experimental: (§1) Cells were grown in Dulbecco's modified eagle's medium (DMEM) containing a growth factor supplement (Cell Biologics # M1 166) which included 5% fetal bovine serum (FBS), heparin, EGF, hydrocortisone, L-glutamine and antibiotics at 37° C. in 5% CO2.
For Western blot, 2 μg (for NFκB) or 4 μg (for phospho-NFκB) of protein from the cell lysate was resolved on 10% Tris/HCL polyacrylamide gels (Criterion precast gel, Bio-Rad Laboratories, Hercules, Calif.), transferred to PVDF membranes (NFκB and phospho-NFκB), incubated in blocking buffer (3% BSA in TBS) and then incubated with primary antibody, washed and incubated with secondary horseradish peroxidase-conjugated antibody.
(§2) Following treatment, western blots or ELISA assays were performed on the MLEC to determine the level of various indicators of airway diseases, such as NFκB protein expression, eotaxin secretion, IL1-β secretion, cellular IL6 content or secretion, adiponectin receptor 1 protein expression, and adiponectin receptor 2 protein expression.

IL1-β = IL1-β secretion from MLEC, direct treatment, ELISA; type: cell-based, mouse; conditions: theophylline 1 μM, leucine 0.5 mM, resveratrol 200 nM, FIG. 4
From the text: (§3) Interleukin 1-β, eotaxin, and interleukin 6 were all measured via enzyme-linked immunosorbent assay using specific antibodies for each cytokine (Abcam, Cambridge, Mass.) and a horseradish peroxidase-based second antibody detection system, with chromogenic detection at 450 nm using a microplate reader (Synergy HT, BioTek Instruments, Winooski, Vt.).

eotaxin = eotaxin secretion from MLEC, direct treatment, ELISA; type: cell-based, mouse; conditions: theophylline 1 μM, leucine 0.5 mM, resveratrol 200 nM, FIG. 5
From the text: as §3

IL 6 [1] = test: cellular IL 6 content in MLEC, direct treatment; type: cell-based, mouse; conditions: theophylline 1 μM, leucine 0.5 mM, resveratrol 200 nM, FIG. 7
Experimental: as §1, §3, §2

IL 6 [2] = test: IL 6 secretion from MLEC, direct treatment, ELISA; type: cell-based, mouse; conditions: FIG. 8
Experimental: as §1, §3, §2

Cn1c(=O)c2[nH]cnc2n(C)c1=O [theophylline]
effect on NFκB protein expression relative to control (NFκB): no independent effect
effect on phospho-NFκB levels (phospho-NFκB): no effect
effect on IL1-β secretion (in words) (IL1-β): no significant independent effect
effect on eotaxin secretion (in words) (eotaxin): no significant effect
effect on cellular expression of IL 6 (IL 6 [1]): unaffected
effect on IL 6 secretion (in words) (IL 6 [2]): no significant independent effect

TNFα
effect on IL1-β secretion (in words) (IL1-β): increase
effect on eotaxin secretion (in words) (eotaxin): no significant effect
effect on IL 6 secretion (in words) (IL 6 [2]): significant increase
